From US8604016B2, “Heterocyclic inhibitors of glutaminase” (Calithera Biosciences Inc., priority 2011, dated 2013)

biological target: recombinant form of Glutaminase 1 (GAC) (Homo sapiens, UniProt O94925); assay: Recombinant Enzyme Assay (GAC coupled to GDH, NADH absorbance, no preincubation); type: biochemical; conditions: no preincubation; read-out: GAC Delta N2 IC50 no
Summary of the method: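 GAC (4 nM) in Tris-HCl pH 8.0 with 150 mM K2HPO4, EDTA, BSA, DTT, plus 4 units/ml GDH and 4 mM ADP, without preincubation. Absorbance at 340 nm was read kinetically for 15 min at 20° C. Slopes (mAU/min) were compared with DMSO-only and control-compound wells on the same plate.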

Q: How did the IC50 turn out when `O=C(Cc1cccnc1)Nc1nnc(CCSCCc2nnc(NC(=O)Cc3cccnc3)s2)s1` [Compound 638] was run?
A: 480 nM

same assay, conditions: no preincubation; read-out: GAC Delta N2 IC50 no preinc

Q: How did the IC50 turn out when `O=C(Cc1ccccc1)Nc1nnc(CCCCc2nnc(NC(=O)[C@@H]3CCCC[C@H]3C(O)c3ccccc3)s2)s1` (stereo partly drawn) [Compound 304] was run?
A: 1200 nM

Q: How did the IC50 turn out when `O=C(Cc1ccccn1)Nc1nnc(CCSCCc2nnc(NC(=O)Cc3ccccn3)s2)s1` [Compound 308] was run?
A: 600 nM

Q: Which IC50 does the source give for `O=C(Cc1ccccc1)Nc1nnc(CCCCc2nnc(NC(=O)Cc3cccnc3)s2)s1` [Compound 309] here?
A: 110 nM

Q: `O=C(Cc1cccnc1)Nc1nnc(CCCCc2nnc(NC(=O)Cc3cccnc3)s2)s1` [Compound 311] was tested. Which IC50 did it give?
A: 200 nM

Q: With `O=C(Cc1cccc(-c2cccnc2)c1)Nc1nnc(CCCCc2nnc(NC(=O)Cc3cccc(-c4cccnc4)c3)s2)s1` [Compound 312] as the molecule, how does the IC50 read?
A: > 20000 nM

Q: For `O=C(Cc1ccccc1)Nc1nnc(CCCCc2nnc(NC(=O)C(CO)c3ccccc3)s2)s1` (stereo not drawn) [Compound 316], which IC50 is on record?
A: 190 nM

Q: How did the IC50 turn out when `COc1cc(C(O)C(=O)Nc2nnc(CCCCc3nnc(NC(=O)C(O)c4ccc(O)c(OC)c4)s3)s2)ccc1O` (stereo not drawn) [Compound 319] was run?
A: 640 nM

Q: `COc1ccc(C(O)C(=O)Nc2nnc(CCCCc3nnc(NC(=O)C(O)c4ccc(OC)cc4)s3)s2)cc1` (stereo not drawn) [Compound 320] was tested. Which IC50 did it give?
A: 400 nM

Q: Which IC50 does the source give for `C[C@H](O)C(=O)Nc1nnc(CCCCc2nnc(NC(=O)Cc3ccccc3)s2)s1` [Compound 321] here?
A: 2500 nM

Q: How did the IC50 turn out when `C[C@@H](O)C(=O)Nc1nnc(CCCCc2nnc(NC(=O)Cc3ccccc3)s2)s1` [Compound 322] was run?
A: 2800 nM

Q: How did the IC50 turn out when `O=C(Cc1cccc2[nH]ccc12)Nc1nnc(CCCCc2nnc(NC(=O)Cc3cccc4[nH]ccc34)s2)s1` [Compound 323] was run?
A: 56 nM

Q: For `COc1ccccc1-c1cccc(CC(=O)Nc2nnc(CCCCc3nnc(NC(=O)Cc4cccc(-c5ccccc5OC)c4)s3)s2)c1` [Compound 326], which IC50 is on record?
A: > 20000 nM

Q: Which IC50 does the source give for `CC(C)(C)OC(=O)Nc1cccc(CC(=O)Nc2nnc(CCCCc3nnc(NC(=O)Cc4cccc(NC(=O)OC(C)(C)C)c4)s3)s2)c1` [Compound 327] here?
A: > 20000 nM

Q: How did the IC50 turn out when `O=C(Cc1cccc(-n2cccc2)c1)Nc1nnc(CCCCc2nnc(NC(=O)Cc3cccc(-n4cccc4)c3)s2)s1` [Compound 330] was run?
A: > 20000 nM

Q: How did the IC50 turn out when `O=C(Cc1cccc(-c2cccc(F)c2)c1)Nc1nnc(CCCCc2nnc(NC(=O)Cc3cccc(-c4cccc(F)c4)c3)s2)s1` [Compound 331] was run?
A: > 20000 nM

Q: How did the IC50 turn out when `O=C(CCN1CCOCC1)OC(C(=O)Nc1nnc(CCCCc2nnc(NC(=O)C(OC(=O)CCN3CCOCC3)c3cccc(Cl)c3)s2)s1)c1cccc(Cl)c1` (stereo not drawn) [Compound 332] was run?
A: 3300 nM

Q: Which IC50 does the source give for `O=C(Cc1ccccc1)Nc1nnc(CCCCc2nnc(NC(=O)Cc3ccccc3CO)s2)s1` [Compound 333] here?
A: 100 nM

Q: With `O=C(Cc1ccccc1)Nc1ccc(CCCCc2nnc(NC(=O)C(OC(=O)CCN3CCOCC3)c3ccccc3)s2)nn1` (stereo not drawn) [Compound 334] as the molecule, how does the IC50 read?
A: 640 nM

Q: Which IC50 does the source give for `COc1ccc(Cl)c(CC(=O)Nc2nnc(CCCCc3nnc(NC(=O)Cc4ccccc4)s3)s2)c1F` [Compound 343] here?
A: 160 nM

Q: `O=C(Cc1ccccc1)Nc1nnc(CCCCc2nnc(NC(=O)Cc3c(Cl)ccc(O)c3F)s2)s1` [Compound 345] was tested. Which IC50 did it give?
A: 160 nM

Q: Which IC50 does the source give for `O=C(Cc1ccccc1)Nc1nnc(CCCCc2nnc(NC(=O)Cc3ccc(F)c(O)c3F)s2)s1` [Compound 346] here?
A: 120 nM

Q: For `O=C(Cc1ccccc1)Nc1nnc(CCSCCc2nnc(NC(=O)Cc3cccnc3)s2)s1` [Compound 347], which IC50 is on record?
A: 220 nM

Q: `CCOC(=O)Nc1nnc(CCSCCc2nnc(NC(=O)OCC)s2)s1` [Compound 356] was tested. Which IC50 did it give?
A: > 20000 nM

Q: Which IC50 does the source give for `CC(=O)Nc1nnc(CCSCCc2nnc(N)s2)s1` [Compound 357] here?
A: > 20000 nM

Q: With `O=C(CCN1CCOCC1)OC(C(=O)Nc1nnc(CCCCc2nnc(NC(=O)C(O)c3cccc(Cl)c3)s2)s1)c1cccc(Cl)c1` (stereo not drawn) [Compound 358] as the molecule, how does the IC50 read?
A: 1400 nM

Q: Which IC50 does the source give for `O=C(Cc1ccccc1)Nc1nnc(CCSCCc2nnc(NC(=O)Cc3ccccn3)s2)s1` [Compound 359] here?
A: 380 nM

Q: With `O=C(Cc1ccncc1)Nc1nnc(CCSCCc2nnc(NC(=O)Cc3ccncc3)s2)s1` [Compound 361] as the molecule, how does the IC50 read?
A: 1800 nM

Q: With `O=C(Cc1cccc(Cn2cccn2)c1)Nc1nnc(CCCCc2nnc(NC(=O)Cc3cccc(Cn4cccn4)c3)s2)s1` [Compound 362] as the molecule, how does the IC50 read?
A: 350 nM

Q: Which IC50 does the source give for `O=C(Cc1cccc(-n2ccnc2)c1)Nc1nnc(CCCCc2nnc(NC(=O)Cc3cccc(-n4ccnc4)c3)s2)s1` [Compound 363] here?
A: 65 nM

Q: Which IC50 does the source give for `CCOC(=O)Nc1nnc(CCCCc2nnc(NC(=O)Cc3ccccc3)s2)s1` [Compound 369] here?
A: 810 nM

Q: Which IC50 does the source give for `CC(C)COC(=O)Nc1nnc(CCCCc2nnc(NC(=O)Cc3ccccc3)s2)s1` [Compound 370] here?
A: 280 nM

Q: With `O=C(Cc1ccccc1)Nc1nnc(CCSCc2nnc(NC(=O)Cc3cccc(Cl)c3)s2)s1` [Compound 372] as the molecule, how does the IC50 read?
A: 160 nM

Q: `O=C(Cc1ccccc1)Nc1nnc(CCSCc2nnc(NC(=O)Cc3ccccn3)s2)s1` [Compound 373] was tested. Which IC50 did it give?
A: 170 nM

Q: `O=C(Cc1ccccc1)Nc1nnc(CCCCc2nnc(NC(=O)OCc3ccccc3)s2)s1` [Compound 374] was tested. Which IC50 did it give?
A: 260 nM

Q: Which IC50 does the source give for `O=C(Cc1ccccc1)Nc1nnc(CCSCc2nnc(NC(=O)C(O)c3cccc(Cl)c3)s2)s1` (stereo not drawn) [Compound 376] here?
A: 350 nM

Q: For `O=C(Cc1ccccc1)Nc1nnc(CCSCc2nnc(NC(=O)[C@@H](O)c3ccccc3)s2)s1` [Compound 377], which IC50 is on record?
A: 280 nM

Q: How did the IC50 turn out when `O=C(Cc1ccccc1)Nc1nnc(CCSCc2nnc(NC(=O)Cc3cccc(OCCN4CCOCC4)c3)s2)s1` [Compound 378] was run?
A: 220 nM

Q: `COC(=O)Nc1nnc(CCCCc2nnc(NC(=O)Cc3ccccc3)s2)s1` [Compound 387] was tested. Which IC50 did it give?
A: 1200 nM

Q: Which IC50 does the source give for `CCCCOC(=O)Nc1nnc(CCCCc2nnc(NC(=O)Cc3ccccc3)s2)s1` [Compound 388] here?
A: 210 nM

Q: Which IC50 does the source give for `O=C(Cc1ccccc1)Nc1nnc(C[C@@H]2C[C@H]2Cc2nnc(NC(=O)Cc3ccccc3)s2)s1` [Compound 1035] here?
A: > 20000 nM

Q: Which IC50 does the source give for `O=C(Cc1ccccc1)Nc1ccc(CCCCc2ccc(NC(=O)Cc3ccccc3)nn2)nn1` [Compound 1038] here?
A: 80 nM
